Assay results: patent publication US20250304623A1, “PEPTIDES FOR INTRACELLULAR DELIVERY” (UNIVERSIDADE DE SANTIAGO DE COMPOSTELA, priority 2022, published 2025)
*: point of attachment. NHNH2 = NN*

Assays:
Format in all cases: cell-based
[1] = test system: Hek293 cells expressing EGFP; assay: EGFP-targeting siRNA delivery (GFP silencing vs siMOCK), Hek293
[2] = test system: HepG2 cells; assay: EGFP mRNA delivery, robotic library screening, HepG2; conditions: HepG2 cells
Procedure, shortened: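 This robotic library screen tested delivery of CleanCap EGFP mRNA (5moU) into HepG2 cells using amphiphilic molecules. Complexes were freshly prepared at room temperature and added to the cells, and the medium was then replaced with fresh DMEM plus 10% FBS. Total EGFP fluorescence was measured in a plate reader at 72 h in triplicate, with untreated-cell background subtracted.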

[3] = test system: ARPE19 cells expressing EGFP; assay: EGFP-targeting siRNA delivery (GFP silencing vs siMOCK), ARPE19
Procedure, shortened: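 This siRNA delivery assay used stably EGFP-expressing cells seeded a day ahead in 96-well plates. siGFP and amphiphile were combined in DMEM at a constant 30 nM siRNA, incubated 30 min at room temperature, then applied for 4 h before switching to fresh DMEM with 10% FBS. After 72 h, a plate reader measured fluorescence decrease relative to non-targeting siMOCK, subtracting untreated background.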

[4] = test system: HepG2 cells; assay: RLuc pDNA delivery, robotic library screening, HepG2
Procedure, shortened: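 After the 4 h exposure the complexes were replaced with fresh DMEM plus 10% FBS. At 72 hours cells were washed with HBSS, kept 30 minutes at 37° C. for basal readings, then given coelenterazine h (5 μM final) for 10 minutes before total luminescence was read. Triplicate means had untransfected background subtracted and were also expressed relative to Lipofectamine® 2000 set at 1.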

Q: Which “percentage of GFP-silencing relative to siMOCK” value ([1]; Myristoleyl, 5 μM) does the source give for “Ac-RK*LRK*K*L-NH2 (Ac-RK(NHNH2)LRK(NHNH2)K(NHNH2)L-NH2; not fully specified; printed as Ac-RK*LRK*K*L-NH2; also: K*2,K*5,K*6: native or modified lysine (ε-amide to a linker)) [Peptide 7.3]” here?
A: 29%

Q: And the “percentage of GFP-silencing relative to siMOCK” value ([1]; Oleyl, 5 μM)?
A: 26%

Q: What about the “percentage of GFP-silencing relative to siMOCK” value ([1]; Palmitoleyl, 15 μM) of the same substance?
A: 19%

Q: What about the “percentage of GFP-silencing relative to siMOCK” value ([1]; Petroselinyl, 15 μM) of the same substance?
A: 3%

Q: And the “mean fluorescence intensity after transfection of EGFP mRNA” value (“mean fluorescence intensity” for short) ([2]; Dodecanal, 5 μM)?
A: 1786

Q: What about the “mean fluorescence intensity” value ([2]; Dodecanal, 10 μM) of the same substance?
A: 1477

Q: What about the “mean fluorescence intensity” value ([2]; Dodecanal, 15 μM) of the same substance?
A: 952

Q: What about the “mean fluorescence intensity” value ([2]; Myristoleyl, 5 μM) of the same substance?
A: 1046

Q: And the “mean fluorescence intensity” value ([2]; Oleyl, 5 μM)?
A: 893

Q: What about the “mean fluorescence intensity” value ([2]; Palmitoleyl, 5 μM) of the same substance?
A: 3286

Q: What about the “mean fluorescence intensity” value ([2]; Palmitoleyl, 10 μM) of the same substance?
A: 3553

Q: And the “mean fluorescence intensity” value ([2]; Palmitoleyl, 15 μM)?
A: 766

Q: And the “mean fluorescence intensity” value ([2]; Petroselinyl, 5 μM)?
A: 4095

Q: And the “mean fluorescence intensity” value ([2]; Petroselinyl, 10 μM)?
A: 188

Q: And the “mean fluorescence intensity” value ([2]; Petroselinyl, 15 μM)?
A: 821

Q: And the “percentage of GFP-silencing relative to siMOCK” value ([3]; Dodecanal, 5 μM)?
A: 15%

Q: And the “percentage of GFP-silencing relative to siMOCK” value ([3]; Dodecanal, 10 μM)?
A: 35%

Q: What about the “percentage of GFP-silencing relative to siMOCK” value ([3]; Dodecanal, 15 μM) of the same substance?
A: 45%

Q: And the “percentage of GFP-silencing relative to siMOCK” value ([3]; Palmitoleyl, 15 μM)?
A: −5%

Q: And the “mean luminescent intensity (RLuc pDNA)” value ([4]; Dodecanal, 10 μM)?
A: 4529 RLU

Q: What about the “mean luminescent intensity (RLuc pDNA)” value ([4]; Dodecanal, 15 μM) of the same substance?
A: 14804 RLU

Q: And the “mean luminescent intensity (RLuc pDNA)” value ([4]; Myristoleyl, 5 μM)?
A: 109155 RLU

Q: What about the “mean luminescent intensity (RLuc pDNA)” value ([4]; Myristoleyl, 10 μM) of the same substance?
A: 294365 RLU

Q: What about the “mean luminescent intensity (RLuc pDNA)” value ([4]; Myristoleyl, 15 μM) of the same substance?
A: 241385 RLU

Q: And the “mean luminescent intensity (RLuc pDNA)” value ([4]; Palmitoleyl, 5 μM)?
A: 107745 RLU

Q: What about the “mean luminescent intensity (RLuc pDNA)” value ([4]; Palmitoleyl, 10 μM) of the same substance?
A: 84207 RLU

Q: And the “mean luminescent intensity (RLuc pDNA)” value ([4]; Palmitoleyl, 15 μM)?
A: 46358 RLU

Q: What about the “mean luminescent intensity (RLuc pDNA)” value ([4]; Petroselinyl, 5 μM) of the same substance?
A: 228306 RLU

Q: What about the “mean luminescent intensity (RLuc pDNA)” value ([4]; Petroselinyl, 10 μM) of the same substance?
A: 150739 RLU

Q: And the “mean luminescent intensity (RLuc pDNA)” value ([4]; Petroselinyl, 15 μM)?
A: 51938 RLU
